Measurements as given in publication PMC9571063 (Molecules, 2022).
Counter-ions that a name gives are not always drawn. Like-named read-outs stand apart in the source and are kept apart here.

Columns and labels:
Hs_PIM1 = target: T1, Hs_PIM1 (Homo sapiens, UniProt P11309); assay: ADP-Glo kinase assay, primary screen; assay type: biochemical; settings: n=2, read-out: % of residual activity Hs_PIM1
T1 construct: host or cells: Sf9 insect cells (baculovirus)

[1] = cytotoxic assay, nuclei count (Hoechst, HCS); assay type: cell-based; settings: human, MCF7 cells (breast carcinoma); 48 h treatment; read-out: Cytotoxic studies IC50 MCF7
Protocol: (§1) To complete our study, we performed a cytotoxicity screening of the 15 molecules, investigating 7 representative cancer cell lines. The compound’s effect on cell viability was evaluated on Huh-7 (hepatocellular carcinoma), CaCo2, HCT-116 (colorectal adenocarcinoma), MCF7, MDA-MB231, MDA-MB468 (breast carcinoma), PC3 (prostate carcinoma) and NCI-H727 (lung carcinoid). Human skin fibroblasts were used as reference for non-cancerous cells. Roscovitine, Doxorubicin and Taxol were used as positive controls. The cells were treated for 48 h with 25 µM compounds and fixed in cooled 90% ethanol/5% acetic acid for 20 min. The nuclei were stained with Hoechst 33342 and counted using HCS technology.
(§2) HuH7, CaCo-2, MDA-MB-231, HCT116, PC3, MCF7 and NCI-H727 cancer cell lines were obtained from the ECACC collection (Porton Down, UK). Cells were grown at 37 °C, 5% CO2 in ECACC recommended media: DMEM for HuH7, MDA-MB-231 and fibroblast, EMEM for MCF7and CaCo-2, McCoy’s for HCT116 and RPMI for PC3 and NCI-H727. All culture media were supplemented with 10% of FBS, 1% of penicillin-streptomycin and 2 mM glutamine.
(§3) Chemicals were solubilized in DMSO at a concentration of 10 mM (stock solution) and diluted in culture medium to the desired final concentrations.
(§4) The cytotoxic assay of chemical was performed at 25 µM. Cells were plated in 96 wells plates (4000 cells/well). Twenty-four hours after seeding, cells were exposed to chemicals. After 48 h of treatment, cells were washed in PBS and fixed in cooled 90% ethanol/5% acetic acid for 20 min and the nuclei were stained with Hoechst 33342 (B2261 Sigma). Image acquisition and analysis were performed using a CellomicsArrayScan VTI/HCS Reader (ThermoScientific, Waltham, MA, USA). The survival percentages were calculated as the percentage of cell number after compound treatment over cell number after DMSO treatment.

Rn_DYRK1A = target: T2, Rn_DYRK1A (Rattus norvegicus, UniProt Q63470); assay: ADP-Glo kinase assay, primary screen; assay type: biochemical; settings: n=2, read-out: % of residual activity Rn_DYRK1A
T2 construct: host or cells: bacteria

HsDYRK1A = target: T3, HsDYRK1A (Homo sapiens, UniProt Q13627); assay: ADP-Glo kinase assay; assay type: biochemical; settings: for remaining activity at 1 µM / remaining activity at 10 µM: n=2, read-out: % of residual activity Hs_DYRK1A; for IC50: 10 µM ATP, duplicate
T3 construct: host or cells: Sf9 insect cells (baculovirus)

[2] = cytotoxic assay, nuclei count (Hoechst, HCS); assay type: cell-based, human; settings: human, human skin fibroblasts (non-cancerous reference cells); 48 h treatment; some cells add low/moderate/high amplitude; read-out: Cytotoxic studies IC50 Fibroblasts
Protocol: as §1, §2, §3, §4

Human skin fibroblasts = assay: cytotoxic assay, nuclei count (Hoechst, HCS); assay type: cell-based; settings: summary of Table S2
Protocol: as §1, §2, §3, §4

MmCLK1 = target: T4, MmCLK1 (Mus musculus, UniProt P22518); assay: ADP-Glo kinase assay; assay type: biochemical; settings: for remaining activity at 1 µM / remaining activity at 10 µM: n=2, read-out: % of residual activity Mm_CLK1; for IC50: mouse CLK1 orthologue, read-out: IC50 MmCLK1
T4 construct: host or cells: bacteria
T4 sequence (P22518 whole entry): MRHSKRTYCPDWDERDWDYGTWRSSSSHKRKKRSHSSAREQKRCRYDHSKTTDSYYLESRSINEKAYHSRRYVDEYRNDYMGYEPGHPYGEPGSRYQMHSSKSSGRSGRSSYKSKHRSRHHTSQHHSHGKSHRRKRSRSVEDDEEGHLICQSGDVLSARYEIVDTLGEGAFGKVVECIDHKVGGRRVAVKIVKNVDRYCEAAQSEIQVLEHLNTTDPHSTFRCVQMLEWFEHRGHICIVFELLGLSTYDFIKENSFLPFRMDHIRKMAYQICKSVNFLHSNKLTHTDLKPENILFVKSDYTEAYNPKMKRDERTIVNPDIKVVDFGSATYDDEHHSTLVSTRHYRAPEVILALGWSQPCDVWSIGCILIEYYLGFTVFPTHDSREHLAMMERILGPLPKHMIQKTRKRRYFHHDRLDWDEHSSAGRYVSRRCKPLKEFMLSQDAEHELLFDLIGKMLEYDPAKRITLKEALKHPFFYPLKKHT

Hs_GSK3β = target: T5, Hs_GSK3β (Homo sapiens, UniProt P49841); assay: ADP-Glo kinase assay, primary screen; assay type: biochemical; settings: n=2, read-out: % of residual activity Hs_GSK3β
T5 construct: host or cells: Sf9 insect cells (baculovirus)
T5 sequence (P49841 whole entry): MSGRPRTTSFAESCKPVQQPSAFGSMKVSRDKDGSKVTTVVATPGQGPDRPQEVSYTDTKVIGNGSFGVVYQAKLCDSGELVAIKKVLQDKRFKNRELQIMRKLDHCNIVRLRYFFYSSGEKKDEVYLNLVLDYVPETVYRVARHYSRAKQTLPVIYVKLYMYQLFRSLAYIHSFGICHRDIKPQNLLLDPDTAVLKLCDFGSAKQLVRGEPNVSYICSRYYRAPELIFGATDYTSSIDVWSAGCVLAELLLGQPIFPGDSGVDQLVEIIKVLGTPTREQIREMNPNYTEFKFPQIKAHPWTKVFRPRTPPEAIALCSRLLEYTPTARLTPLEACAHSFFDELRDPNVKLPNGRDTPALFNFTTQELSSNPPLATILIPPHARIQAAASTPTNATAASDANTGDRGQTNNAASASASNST

[3] = cytotoxic assay, nuclei count (Hoechst, HCS); assay type: cell-based; settings: human, 48 h treatment
Protocol: as §1, §2, §3
as §4, with “The cytotoxic assay of chemical was performed at 25 µM.” left out

Hs_CK1ε = target: T6, Hs_CK1ε (Homo sapiens, UniProt P49674); assay: ADP-Glo kinase assay, primary screen; assay type: biochemical; settings: n=2, read-out: % of residual activity Hs_CK1ε
T6 construct: host or cells: Sf9 insect cells (baculovirus)
T6 sequence (P49674 whole entry): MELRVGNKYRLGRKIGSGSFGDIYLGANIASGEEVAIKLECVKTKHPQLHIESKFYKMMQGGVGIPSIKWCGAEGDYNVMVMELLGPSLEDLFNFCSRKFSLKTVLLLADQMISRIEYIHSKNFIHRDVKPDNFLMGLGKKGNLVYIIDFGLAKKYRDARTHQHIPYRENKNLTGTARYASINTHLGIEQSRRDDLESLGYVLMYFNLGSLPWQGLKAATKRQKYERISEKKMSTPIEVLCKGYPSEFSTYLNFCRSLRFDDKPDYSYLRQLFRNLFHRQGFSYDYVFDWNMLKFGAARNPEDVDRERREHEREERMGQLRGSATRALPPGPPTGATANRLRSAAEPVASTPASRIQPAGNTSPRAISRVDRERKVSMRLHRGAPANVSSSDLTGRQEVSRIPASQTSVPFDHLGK

Hs_HASPIN = target: T7, Hs_HASPIN (Homo sapiens, UniProt Q8TF76); assay: ADP-Glo kinase assay, primary screen; assay type: biochemical; settings: n=2, read-out: % of residual activity Hs_HASPIN
T7 construct: host or cells: bacteria
T7 sequence (Q8TF76 1-798): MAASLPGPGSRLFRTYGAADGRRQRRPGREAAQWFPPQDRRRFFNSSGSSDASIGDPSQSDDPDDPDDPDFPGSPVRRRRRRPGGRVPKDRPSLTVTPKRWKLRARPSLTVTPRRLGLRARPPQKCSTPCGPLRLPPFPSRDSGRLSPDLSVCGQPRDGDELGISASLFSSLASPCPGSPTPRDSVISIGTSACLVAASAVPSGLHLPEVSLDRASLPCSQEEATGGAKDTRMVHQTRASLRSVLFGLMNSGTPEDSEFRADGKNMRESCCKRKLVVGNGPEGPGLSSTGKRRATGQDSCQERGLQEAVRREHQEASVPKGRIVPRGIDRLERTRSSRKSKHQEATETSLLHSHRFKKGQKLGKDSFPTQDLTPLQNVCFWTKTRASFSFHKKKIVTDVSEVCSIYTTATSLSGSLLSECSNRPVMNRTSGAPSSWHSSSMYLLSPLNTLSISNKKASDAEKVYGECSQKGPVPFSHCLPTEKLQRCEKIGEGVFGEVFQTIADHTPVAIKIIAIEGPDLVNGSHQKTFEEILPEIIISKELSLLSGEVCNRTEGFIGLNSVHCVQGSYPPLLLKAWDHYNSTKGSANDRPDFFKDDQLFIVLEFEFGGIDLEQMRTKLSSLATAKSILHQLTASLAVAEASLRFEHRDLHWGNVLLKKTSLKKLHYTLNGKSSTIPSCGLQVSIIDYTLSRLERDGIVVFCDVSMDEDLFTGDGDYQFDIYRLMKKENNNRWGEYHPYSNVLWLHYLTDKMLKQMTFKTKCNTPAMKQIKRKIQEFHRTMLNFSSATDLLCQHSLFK

Hs_CDK9/CyclinT = target: T8, Hs_CDK9/CyclinT (Homo sapiens, UniProt P50750); assay: ADP-Glo kinase assay, primary screen; assay type: biochemical; settings: n=2, read-out: % of residual activity Hs_CDK9/CyclinT
T8 construct: host or cells: Sf9 insect cells (baculovirus)
T8 sequence (P50750 whole entry): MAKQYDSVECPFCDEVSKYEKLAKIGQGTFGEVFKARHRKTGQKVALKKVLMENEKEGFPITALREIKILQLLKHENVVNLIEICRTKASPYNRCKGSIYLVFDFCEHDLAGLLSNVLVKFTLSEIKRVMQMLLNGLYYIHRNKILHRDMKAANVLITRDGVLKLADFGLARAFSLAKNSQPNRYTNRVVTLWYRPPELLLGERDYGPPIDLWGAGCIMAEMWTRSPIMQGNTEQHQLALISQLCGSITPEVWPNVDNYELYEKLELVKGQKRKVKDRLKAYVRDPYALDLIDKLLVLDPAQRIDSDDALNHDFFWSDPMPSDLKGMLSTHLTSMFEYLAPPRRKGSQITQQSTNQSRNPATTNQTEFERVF
T8 sequence (O60563 whole entry partner): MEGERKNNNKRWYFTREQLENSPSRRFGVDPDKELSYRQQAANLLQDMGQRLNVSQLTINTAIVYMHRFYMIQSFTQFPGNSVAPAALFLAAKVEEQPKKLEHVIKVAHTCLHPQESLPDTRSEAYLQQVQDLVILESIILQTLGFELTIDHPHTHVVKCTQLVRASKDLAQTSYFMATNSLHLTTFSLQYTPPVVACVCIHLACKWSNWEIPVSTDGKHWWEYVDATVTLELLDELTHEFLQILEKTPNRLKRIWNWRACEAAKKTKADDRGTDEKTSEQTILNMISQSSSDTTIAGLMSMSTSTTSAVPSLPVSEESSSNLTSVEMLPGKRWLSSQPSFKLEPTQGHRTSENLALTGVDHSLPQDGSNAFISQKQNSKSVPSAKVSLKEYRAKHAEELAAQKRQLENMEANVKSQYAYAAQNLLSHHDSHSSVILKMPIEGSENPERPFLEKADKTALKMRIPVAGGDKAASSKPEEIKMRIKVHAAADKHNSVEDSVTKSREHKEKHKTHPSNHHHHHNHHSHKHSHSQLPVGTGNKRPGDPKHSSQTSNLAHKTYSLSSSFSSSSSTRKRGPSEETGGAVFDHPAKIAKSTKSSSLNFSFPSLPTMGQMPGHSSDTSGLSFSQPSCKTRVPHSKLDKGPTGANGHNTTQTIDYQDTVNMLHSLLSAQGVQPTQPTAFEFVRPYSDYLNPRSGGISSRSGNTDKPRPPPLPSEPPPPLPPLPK

[4] = cytotoxic assay, nuclei count (Hoechst, HCS); assay type: cell-based; settings: human, Caco-2 cells (colorectal adenocarcinoma); 48 h treatment; read-out: Cytotoxic studies IC50 Caco2
[5] = cytotoxic assay, nuclei count (Hoechst, HCS); assay type: cell-based; settings: human, MDA-MB-231 cells (breast carcinoma); 48 h treatment; read-out: Cytotoxic studies IC50 MDA-MB-231
Hs_CDK5/p25 = target: T9, Hs_CDK5/p25 (Homo sapiens, UniProt Q00535); assay: ADP-Glo kinase assay, primary screen; assay type: biochemical; settings: n=2, read-out: % of residual activity Hs_CDK5/p25
T9 construct: host or cells: bacteria
T9 sequence (Q00535 whole entry): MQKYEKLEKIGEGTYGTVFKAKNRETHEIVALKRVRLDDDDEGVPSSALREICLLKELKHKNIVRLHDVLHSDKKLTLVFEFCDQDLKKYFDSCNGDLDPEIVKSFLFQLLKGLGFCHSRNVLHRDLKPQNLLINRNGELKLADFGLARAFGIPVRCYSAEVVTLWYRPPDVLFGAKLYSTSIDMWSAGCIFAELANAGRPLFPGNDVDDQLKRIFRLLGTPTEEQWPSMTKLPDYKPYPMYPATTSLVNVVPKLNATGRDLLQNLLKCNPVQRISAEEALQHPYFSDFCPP
T9 sequence (Q15078 99-307 partner limits assumed): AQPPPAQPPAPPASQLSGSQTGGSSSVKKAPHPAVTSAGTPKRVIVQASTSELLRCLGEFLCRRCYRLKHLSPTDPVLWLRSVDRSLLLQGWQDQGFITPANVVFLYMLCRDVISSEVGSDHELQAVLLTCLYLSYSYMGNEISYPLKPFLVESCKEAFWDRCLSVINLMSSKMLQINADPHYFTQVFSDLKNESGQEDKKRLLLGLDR

[6] = cytotoxic assay, nuclei count (Hoechst, HCS); assay type: cell-based; settings: human, HuH7 cells (hepatocellular carcinoma); 48 h treatment; read-out: Cytotoxic studies IC50 HuH7
[7] = HCT116 cells (colorectal adenocarcinoma), read-out: Cytotoxic studies IC50 HCT116
[8] = MDA-MB-468 cells (breast carcinoma), read-out: Cytotoxic studies IC50 MDA-MB-468

T1 sequence (P11309 whole entry): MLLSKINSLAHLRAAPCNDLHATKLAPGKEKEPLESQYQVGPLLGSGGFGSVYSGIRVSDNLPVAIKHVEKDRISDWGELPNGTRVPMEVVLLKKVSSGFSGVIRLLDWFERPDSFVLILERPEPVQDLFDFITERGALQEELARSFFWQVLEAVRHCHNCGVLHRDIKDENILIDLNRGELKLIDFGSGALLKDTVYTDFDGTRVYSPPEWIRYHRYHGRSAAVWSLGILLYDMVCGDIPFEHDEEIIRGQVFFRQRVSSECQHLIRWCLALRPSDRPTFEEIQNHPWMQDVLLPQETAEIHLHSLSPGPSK

Row | Structure (SMILES) | remaining activity at 1 µM (Hs_PIM1) [%] | remaining activity at 10 µM (Hs_PIM1) [%] | IC50 at 48 h [1] [µM] | remaining activity at 1 µM (Rn_DYRK1A) [%] | remaining activity at 10 µM (Rn_DYRK1A) [%] | remaining activity at 1 µM (HsDYRK1A) [%] | remaining activity at 10 µM (HsDYRK1A) [%] | IC50 at 48 h [2] [nM] | remaining activity at 1 µM (MmCLK1) [%] | remaining activity at 10 µM (MmCLK1) [%] | remaining activity at 1 µM (Hs_GSK3β) [%] | remaining activity at 10 µM (Hs_GSK3β) [%] | IC50 at 48 h [3, 7] [µM] | IC50 at 48 h [3, 8] [µM] | remaining activity at 1 µM (Hs_CK1ε) [%] | remaining activity at 10 µM (Hs_CK1ε) [%] | remaining activity at 1 µM (Hs_HASPIN) [%] | remaining activity at 10 µM (Hs_HASPIN) [%] | remaining activity at 1 µM (Hs_CDK9/CyclinT) [%] | remaining activity at 10 µM (Hs_CDK9/CyclinT) [%] | also measured
1 | O=[N+]([O-])c1cc(O)ccc1-n1cc(COc2cccc3cnc(Nc4cccc(Cl)c4)nc23)nn1 [12c, N-(3-Chlorophenyl)-8-((1-(4-hydroxy-2-nitrophenyl)-1H-1,2,3-triazol-4-yl)methoxy)quinazolin-2-amine] | 59 | 68 | 9 | 81 | 45 | ≥ 100 | 60 | 6000 | 36 | 20 | 89 | 60 | 1.3 | 4 | 94 | 81 | 83 | 88 | 58 | 39 | toxicity towards fibroblasts (Human skin fibroblasts): moderate toxicity; IC50 (MmCLK1): 177 nM; IC50 at 48 h [4]: 24 µM; IC50 at 48 h [5]: 19 µM; remaining activity at 1 µM (Hs_CDK5/p25): 71%; remaining activity at 10 µM (Hs_CDK5/p25): 30%; IC50 at 48 h [6]: 5 µM
2 | CC(C)(C)OC(=O)N[C@H]1CC[C@H](n2cc(COc3cccc4cnc(Nc5cc(Cl)cc(Cl)c5)nc34)nn2)CC1 [18b, tert-Butyl ((trans)-4-(4-(((2-((3,5-dichlorophenyl)amino)quinazolin-8-yl)oxy)methyl)-1H-1,2,3-triazol-1-yl)cyclohexyl)carbamate] | 94 | 68 | > 25 | ≥ 100 | ≥ 100 | ≥ 100 | 85 | > 25000 | 86 | 72 | 75 | 35 | > 25 | > 25 | ≥ 100 | 92 | 72 | 53 | 98 | 83 | IC50 at 48 h [4]: > 25 µM; IC50 at 48 h [5]: > 25 µM; remaining activity at 1 µM (Hs_CDK5/p25): 85%; remaining activity at 10 µM (Hs_CDK5/p25): 81%; IC50 at 48 h [6]: 10 µM
3 | N[C@H]1CC[C@H](n2cc(COc3cccc4cnc(Nc5cccc(Cl)c5)nc34)nn2)CC1 [19a, 8-((1-((trans)-4-Aminocyclohexyl)-1H-1,2,3-triazol-4-yl)methoxy)-N-(3-chlorophenyl)quinazolin-2-amine hydrochloride] | 62 | 40 | 11 | 78 | 64 | 84 | 34 | 1300 | 20 | 10 | 50 | 23 | 7 | 7 | 73 | 22 | 70 | 92 | 65 | 30 | IC50 (HsDYRK1A): 3.72 µM; IC50 (MmCLK1): 200 nM; IC50 at 48 h [4]: 11 µM; IC50 at 48 h [5]: 6 µM; remaining activity at 1 µM (Hs_CDK5/p25): ≥ 100%; remaining activity at 10 µM (Hs_CDK5/p25): 30%; IC50 at 48 h [6]: 8 µM
4 | N[C@H]1CC[C@H](n2cc(COc3cccc4cnc(Nc5cc(Cl)cc(Cl)c5)nc34)nn2)CC1 [19b, 8-((1-((trans)-4-Aminocyclohexyl)-1H-1,2,3-triazol-4-yl)methoxy)-N-(3,5-dichlorophenyl)quinazolin-2-amine hydrochloride] | 79 | 44 | 3 | 92 | 92 | ≥ 100 | 55 | 3000 | 12 | 7 | 44 | 15 | 4 | 1.3 | 63 | 20 | 95 | 90 | 91 | 42 | IC50 (HsDYRK1A): 5.44 µM; IC50 (MmCLK1): 210 nM; IC50 at 48 h [4]: 3 µM; IC50 at 48 h [5]: 2 µM; remaining activity at 1 µM (Hs_CDK5/p25): ≥ 100%; remaining activity at 10 µM (Hs_CDK5/p25): 42%; IC50 at 48 h [6]: 14 µM
